Results published in patent EP4678638A1, “NEW E3 UBIQUITIN LIGASE LIGAND, PROTEIN DEGRADATION AGENT AND USE THEREOF” (priority 2023, dated 2024).
Where two headings read alike, the source gives them in different places.

Legend:
MGC-803 = assay: CCK-8 proliferation, MGC-803 (heads: MGC80-3, MGC803); type: cell-based, Human; details: Homo sapiens, MGC-803
Experimental: (§1) The tumor cells used herein were cultured in a cell culture medium listed in table A1 at 37°C in an incubator with 5% CO2. Prior to experimentation, all cell lines used were correctly identified by STR profiling, and tested negative for mycoplasma contamination using a mycoplasma detection kit through routine screenings. Table A1. Tumor cells and cell culture medium used in the present disclosure
(§2) IC50 values of the compounds of the present disclosure (including the compounds in Table 1, and compounds of examples) were measured using the Meilun Cell Counting Kit-8 kit from Dalian Meilun Biotech Co., Ltd. Assay details are as follows: tumor cells were seeded in a 96-well plate at a density listed in Table A2. After 24h, 100 µL of the inoculated cells were treated with 0.5µL of the compounds of the present disclosure (including the compounds in Tables 1 and 2, and compounds of examples) at 10 different successively decreasing concentrations (starting at the highest concentration of 10µM; 5-fold serial dilutions). After the cells were treated with the compounds of the present disclosure for a period of time, the cell viability detection reagent was added to the culture medium for cell viability assessment according to the instructions provided with the CCK-8 kit. […] The growth inhibition of the compounds of the present disclosure on cells was plotted by Prism Graphpad software, and the IC50 values of the compounds of the present disclosure were calculated therefrom. […] Seeding protocol and treatment time for tumor cells

SW620 = assay: CCK-8 proliferation, SW620; type: cell-based; details: Homo sapiens, SW-620; CCK-8; 96 hours; read-out: Inhibitory activity (IC50) on tumor cell proliferation, SW620
Experimental: as §1, §2

IRAK4 = target: T1, IRAK4 (Homo sapiens, UniProt Q9NWZ3); assay: Western blot degradation of IRAK4 (hPBMC); type: cell-based; details: Table D1
T1 construct: evaluate the effects of the compounds of the present disclosure on the expression of target proteins in cells; endogenous in cells; host or cells: hPBMC
T1 sequence (Q9NWZ3 1-460): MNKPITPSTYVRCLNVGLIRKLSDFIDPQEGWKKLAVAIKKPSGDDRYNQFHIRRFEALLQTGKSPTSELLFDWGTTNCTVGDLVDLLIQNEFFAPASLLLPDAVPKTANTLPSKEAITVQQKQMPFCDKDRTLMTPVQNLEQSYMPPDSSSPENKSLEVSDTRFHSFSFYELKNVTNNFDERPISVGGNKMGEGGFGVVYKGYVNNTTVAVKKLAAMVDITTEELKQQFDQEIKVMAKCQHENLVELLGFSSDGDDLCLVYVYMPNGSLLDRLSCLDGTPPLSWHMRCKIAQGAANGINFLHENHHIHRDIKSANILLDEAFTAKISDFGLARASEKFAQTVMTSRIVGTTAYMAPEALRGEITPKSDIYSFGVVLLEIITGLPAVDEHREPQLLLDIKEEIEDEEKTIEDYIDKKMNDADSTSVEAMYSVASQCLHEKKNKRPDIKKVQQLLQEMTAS
How it was run: (§3)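 Degradation is assessed by immunoblotting lysates of treated cells. Target bands are quantified by grayscale and normalised to an internal control, so degradation rate equals 100% minus % remaining.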

Jurkat = assay: CCK-8 proliferation, Jurkat; type: cell-based, Human; details: Homo sapiens; Table B10, compounds designed based on the IRAK4 inhibitors; Jurkat cells; read-out: Inhibitory activity (IC50, nM) on tumor cell proliferation, Jurkat
Experimental: as §1, §2

MM.1S = assay: CCK-8 proliferation, MM.1S; type: cell-based; details: Homo sapiens, MM1.S; Table B10, compounds designed based on the IRAK4 inhibitors; MM.1S cells; read-out: Inhibitory activity (IC50, nM) on tumor cell proliferation, MM.1S
How it was run: (§4)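 CCK-8 viability readout; IC50 from growth-inhibition curve fitting. Cells plated, dosed 24h later with a 10-point series, top 10µM, 5-fold steps. Culture at 37°C, 5% CO2.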

SR = assay: CCK-8 proliferation, SR; type: cell-based, Human; details: Homo sapiens; Table B10, compounds designed based on the IRAK4 inhibitors; SR cells; read-out: Inhibitory activity (IC50, nM) on tumor cell proliferation, SR
How it was run: as §4

HCC827 = assay: CCK-8 proliferation, HCC827; type: cell-based, Human; details: Homo sapiens, HCC827; CCK-8; 96 hours; read-out: Inhibitory activity (IC50) on tumor cell proliferation, HCC827
Experimental: as §1, §2

PC-9 = assay: CCK-8 proliferation, PC-9; type: cell-based, Human; details: Homo sapiens, PC-9; CCK-8; 96 hours; read-out: Inhibitory activity (IC50) on tumor cell proliferation, PC-9
How it was run: as §4

EGFR = assay: Western blot degradation of EGFR (H1975 Cell); type: cell-based, Human; details: Table D2
How it was run: as §3

H1975 = assay: CCK-8 proliferation, NCI-H1975 (H1975); type: cell-based, Human; details: Homo sapiens, NCI-H1975; CCK-8; 96 hours; read-out: Inhibitory activity (IC50) on tumor cell proliferation, H1975
How it was run: as §4

[1] = test system: H1975-1µM Osimertinib cells; assay: CCK-8 proliferation, osimertinib-resistant H1975 cells; type: cell-based, Human; details: Homo sapiens, NCI-H1975; CCK-8; osimertinib-resistant H1975 cells obtained by treating H1975 cells with 1 µM Osimertinib for 3 months; read-out: Inhibitory activity (IC50) on tumor cell proliferation, H1975-1µm Osimertinib
Experimental: as §1, §2

[2] = Table B10, compounds designed based on the IRAK4 inhibitors, MGC803 cells, read-out: Inhibitory activity (IC50, nM) on tumor cell proliferation, MGC803

| Structure (SMILES) | IC50 (MGC-803; [2]) [nM] | IC50 (MM.1S) [nM] | IC50 (HCC827) [nM] | IC50 (PC-9) [nM] | IC50 (H1975) [nM] | Degradation of substrate protein EGFR (substrate protein remaining %) (EGFR) | also measured |
| --- | --- | --- | --- | --- | --- | --- | --- |
| CCC(=C(c1ccc(O)cc1)c1ccc(N2CCN(Cc3ccc(C4CCC(=O)NC4=O)c(F)c3)CC2)cc1)c1ccc(O)cc1 (stereo not drawn) [GT-04150, 3-(4-((4-(4-(1,2-bis(4-hydroxyphenyl)but-1-en-1-yl)phenyl)piperazin-1-yl)methyl)-2-fluorophenyl)piperidine-2,6-dione] | – | – | – | – | – | – | IC50 (MGC-803; CCK-8, 72 hours, read-out: Inhibitory activity (IC50) on tumor cell proliferation, MGC80-3): > 10000 nM; IC50 (SW620): < 1 nM |
| COc1cc2nn(C3CCN(Cc4ccc(C5CCC(=O)NC5=O)c(F)c4)CC3)cc2cc1NC(=O)c1cccc(C(F)(F)F)n1 (stereo not drawn) [GT-04762, N-(2-(1-(4-(2,6-dioxopiperidin-3-yl)-3-fluorobenzyl)piperidin-4-yl)-6-methoxy-2H-indazol-5-yl)-6-(trifluoromethyl)picolinamide] | 500 to 1000 | – | – | – | – | – | Degradation of substrate protein IRAK4 (substrate protein remaining %) (IRAK4): A (A is defined as 0% ≤ substrate protein remaining % ≤ 80%) |
| O=C1CCN(c2cccc(CN3CCC(N4CCN(c5ccc6c(c5)nc(NC(=O)c5cccc(C(F)(F)F)c5)n6[C@H]5CC[C@@H](CO)CC5)CC4)CC3)c2)C(=O)N1 [GT-05022, N-(5-(4-(1-(3-(2,4-dioxotetrahydropyrimidin-1(2H)-yl)benzyl)piperidin-4-yl)piperazin-1-yl)-1-((1s,4s)-4-(hydroxymethyl)cyclohexyl) -1H-benzo[d]imidazol-2-yl)-3-(trifluoromethyl)benzamide] | 500 to 1000 | 500 to 1000 | – | – | – | – | IC50 (Jurkat): 500 to 1000 nM; IC50 (SR): 500 to 1000 nM; Degradation of substrate protein IRAK4 (substrate protein remaining %) (IRAK4): A (A is defined as 0% ≤ substrate protein remaining % ≤ 80%) |
| O=C1CCN(c2ccc(CN3CCC(N4CCN(c5ccc6c(c5)nc(NC(=O)c5cccc(C(F)(F)F)c5)n6[C@H]5CC[C@@H](CO)CC5)CC4)CC3)nc2)C(=O)N1 [GT-05024, N-(5-(4-(1-((5-(2,4-dioxotetrahydropyrimidin-1(2H)-yl)pyridin-2-yl)methyl)piperidin-4-yl)piperazin-1-yl)-1-((1s,4s)-4-(hydroxymethyl)cyclohexyl) -1H-benzo[d]imidazol-2-yl)-3-(trifluoromethyl)benzamide] | 500 to 1000 | 500 to 1000 | – | – | – | – | IC50 (Jurkat): 500 to 1000 nM; IC50 (SR): 500 to 1000 nM |
| O=C1CCN(c2ccc(CN3CCN(c4ccc(Nc5ncc6nc(Nc7ccccc7)n(C7CCCC7)c6n5)cc4)CC3)cn2)C(=O)N1 [GT-05840, 1-(5-((4-(4-((9-cyclopentyl-8-(phenylamino)-9H-purin-2-yl)amino)phenyl)piperazin-1-yl)methyl)pyridin-2-yl)dihydropyrimidine-2,4(1H,3H)-dione] | – | – | 10 to 50 | 1 to 10 | 100 to 500 | A (A is defined as 0% ≤ substrate protein remaining % ≤ 80%) | – |
| O=C1CCN(c2cccc(CN3CCN(C4CCN(c5ccc(Nc6ncc7nc(Nc8ccccc8)n(C8CCCC8)c7n6)cc5)CC4)CC3)c2)C(=O)N1 [GT-05940, 1-(3-((4-(1-(4-((9-cyclopentyl-8-(phenylamino)-9H-purin-2-yl)amino)phenyl)piperidin-4-yl)piperazin-1-yl)methyl)phenyl)dihydropyrimidine-2,4(1H,3H)-dione] | – | – | 1 to 10 | 1 to 10 | 100 to 500 | A (A is defined as 0% ≤ substrate protein remaining % ≤ 80%) | – |
| COC1CCN(c2nccc(Nc3cc4c(cn3)c(N3CCN(Cc5ccc(N6CCC(=O)NC6=O)cc5)CC3)nn4C(C)C)n2)CC1 [GT-06037, 1-(4-((4-(1-isopropyl-6-((2-(4-methoxypiperidin-1-yl)pyrimidin-4-yl)amino)-1H-pyrazolo[4,3-c]pyridin-3-yl)piperazin-1-yl)methyl)phenyl)dihydropyr imidine-2,4(1H,3H)-dione] | – | – | – | – | – | – | IC50 [1]: 1 to 10 nM |
| CC(C)n1nc(N2CCC(N3CCN(Cc4ccc(C5CCC(=O)NC5=O)cc4)CC3)CC2)c2cnc(Nc3ccnc(-c4cnn(S(=O)(=O)C5CC5)c4)n3)cc21 (stereo not drawn) [GT-06078, 3-(4-((4-(1-(6-((2-(1-(cyclopropylsulfonyl)-1H-pyrazol-4-yl)pyrimidin-4-yl)amino)-1-isopropyl-1H-pyrazolo[4,3-c]pyridin-3-yl)piperidin-4-yl)piperazin-1-yl)methyl)phenyl)piperidine-2,6-dione] | – | – | – | – | – | A (A is defined as 0% ≤ substrate protein remaining % ≤ 80%) | IC50 [1]: 100 to 500 nM |
| O=C1CCC(Nc2cccc(CN3CCN(c4ccc(-c5cc(F)c6c(c5)C(=O)N(C(C(=O)Nc5nccs5)c5ncn7c5CCC7)C6)cc4)CC3)c2)C(=O)N1 (stereo not drawn) [GT-06188, 2-(6,7-dihydro-5H-pyrrolo[1,2-c]imidazol-1-yl)-2-(6-(4-(4-(3-((2,6-dioxopiperidin-3-yl)amino)benzyl)piperazin-1-yl)phenyl)-4-fluoro-1-oxoisoindolin-2-yl)-N-(thiazol-2-yl)acetamide] | – | – | – | – | 1 to 10 | – | IC50 [1]: < 1 nM |

Further lines, with some results ahead:

| IC50 (MGC-803; [2]) [nM] | IC50 (MM.1S) [nM] | IC50 (HCC827) [nM] | IC50 (PC-9) [nM] | IC50 (H1975) [nM] | Structure (SMILES) | Degradation of substrate protein EGFR (substrate protein remaining %) (EGFR) | also measured |
| --- | --- | --- | --- | --- | --- | --- | --- |
| 500 to 1000 | 500 to 1000 | – | – | – | O=C1CCN(c2ccc(CN3CCC(N4CCN(c5ccc6c(c5)nc(NC(=O)c5cccc(C(F)(F)F)c5)n6[C@H]5CC[C@@H](CO)CC5)CC4)CC3)cc2)C(=O)N1 [GT-05021, N-(5-(4-(1-(4-(2,4-dioxotetrahydropyrimidin-1(2H)-yl)benzyl)piperidin-4-yl)piperazin-1-yl)-1-((1s,4s)-4-(hydroxymethyl)cyclohexyl) -1H-benzo[d]imidazol-2-yl)-3-(trifluoromethyl)benzamide] | – | IC50 (Jurkat): 500 to 1000 nM |
| – | – | 10 to 50 | 1 to 10 | 100 to 500 | CN(Cc1cccc(N2CCC(=O)NC2=O)c1)C1CCN(c2ccc(Nc3ncc4nc(Nc5ccccc5)n(C5CCCC5)c4n3)cc2)CC1 [GT-05870, 1-(3-(((1-(4-((9-cyclopentyl-8-(phenylamino)-9H-purin-2-yl)amino)phenyl)piperidin-4-yl)(methyl)amino)methyl)phenyl)dihydropyrimidine-2,4(1H,3H)-dione] | A (A is defined as 0% ≤ substrate protein remaining % ≤ 80%) | – |
| – | – | 10 to 50 | 1 to 10 | 100 to 500 | O=C1CCN(c2ccc(CN3CCN(C4CCN(c5ccc(Nc6ncc7nc(Nc8ccccc8)n(C8CCCC8)c7n6)cc5)CC4)CC3)nc2)C(=O)N1 [GT-05941, 1-(6-((4-(1-(4-((9-cyclopentyl-8-(phenylamino)-9H-purin-2-yl)amino)phenyl)piperidin-4-yl)piperazin-1-yl)methyl)pyridin-3-yl)dihydropyrimidine-2,4(1H,3H)-dione] | A (A is defined as 0% ≤ substrate protein remaining % ≤ 80%) | – |
| > 10000 | > 10000 | – | – | – | Cc1cc(-c2nc(C(=O)Nc3cc4oc(N5CCOCC5)nc4nc3N3CC[C@@H](O)C3)co2)ccn1 [emavusertib, reference compound] | – | – |
